Reference: patent US20210195892A1, “COMPOSITION AND METHOD FOR MICROBIAL CONTROL ON MATERIAL SURFACES” (Microban Products Company, priority 2019, published 2021)
Counter-ions that a name gives are not always drawn.

Legend:
[1] = Thermogravimetric analysis (TGA) at 10° C./min; type: physicochemical; details: for temperature at which volatization started: TGA 10° C./min, FIG. 2
bacteria = test: Antibacterial efficacy of treated PP plaques (ISO 22196); type: cell-based; details: for bacterial efficacy per the ISO 22196 test: salts alone in PP, any active concentration up to 1%
Procedure: In addition to processing at 200° C., samples were run with PP at 250° C. to simulate the use of these GRAS acids in polymers that process at higher temperatures than polypropylene. Samples were also run using extended residence times in the injection molding machine (from the normal 30 second residence time to 120 seconds residence time) to simulate a process with a longer cycle time that would hold the polymer material at temperature for an extended period of time—the extended cycle were run at both 200° C. and 240° C.

Aspergillus niger (An) = test: ASTM E2180 protocol, fungus; type: cell-based

SMILES	temperature at which volatization started [1]	bacterial efficacy per the ISO 22196 test (bacteria)	further results
O=C(O)CC(O)(CC(=O)O)C(=O)O [GCA, citric acid]	200 °C		antibacterial efficacy (bacteria; PP test plaques at 0.5% and 1% active level): good at the higher level but fell off at the lower level
C/C=C/C=C/C(=O)O [GSA, sorbic acid]	approximately 100 °C		efficacy as low as (level in PP) (bacteria; further experiments, PP): 1000 ppm
O=C([O-])c1ccccc1.[Na+] [GNB, sodium benzoate]		no significant bacterial efficacy	
O=C(O)c1ccccc1 [GBA, benzoic acid]	approximately 100 °C		reduction in fungal growth (Aspergillus niger (An); incorporated into EVA): over 90%; reductions in fungal growth (Aspergillus niger (An); incorporated into PE): over 99%
C/C=C/C=C/C(=O)[O-].[K+] [GKS, potassium sorbate]		no significant bacterial efficacy	
O=C(O)CC(O)(CC(=O)O)C(=O)O [GNC, sodium citrate]		no significant bacterial efficacy	weight loss in TGA ([1]; TGA 10° C./min up to 275° C., attributed to water content): approximately 10%
